Columns and labels:
Assay in all cases: relative viability (nuclei count vs DMSO), 5 days (fraction); higher = more cells survive
[1] = system: NCI-H661
How it was run: (§1)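 After 5 days of treatment, lung cancer cells in 1536-well plates were fixed and stained in a single step (final 0.05% Triton X-100, 1% formaldehyde, 1 ug/ml Hoechst) and their nuclei counted on 4× images. Treatment had been applied by pin tool the day after seeding as one drug alone or as a fixed anchor-drug dose with five library-drug doses (not always all listed) in √10 steps. Relative viability is the nuclei count of treated wells divided by that of vehicle wells, and values are medians of duplicate plates.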

[2] = system: HARA
How it was run: as §1

[3] = system: NCI-H2126
How it was run: as §1

[4] = system: CAL-12T
How it was run: as §1

[5] = system: NCI-H1975
How it was run: as §1

[6] = system: NCI-H647
How it was run: as §1

[7] = system: NCI-H460
How it was run: as §1

[8] = system: NCI-H727
How it was run: as §1

[9] = system: A-427
How it was run: as §1

[10] = system: LCLC-103H
How it was run: as §1

[11] = system: NCI-H596
How it was run: as §1

[12] = system: NCI-H1734
How it was run: as §1

[13] = system: NCI-H520
How it was run: as §1

[14] = system: NCI-H1666
How it was run: as §1

[15] = system: NCI-H2085
How it was run: as §1

[16] = system: NCI-H838
How it was run: as §1

[17] = system: RERF-LC-KJ
How it was run: as §1

[18] = system: LOU-NH91
How it was run: as §1

[19] = system: NCI-H1944
How it was run: as §1

[20] = system: NCI-H1651
How it was run: as §1

Cc1cn(-c2cc(NC(=O)c3ccc(C)c(Nc4nccc(-c5cccnc5)n4)c3)cc(C(F)(F)F)c2)cn1 [Nilotinib] + Cc1nc(NC(=O)N2CCC[C@H]2C(N)=O)sc1-c1ccnc(C(C)(C)C(F)(F)F)c1 [Alpelisib] (partner 2 µM)
relative viability ([1]; first compound 0.001 µM): 0.647 | relative viability ([1]; first compound 0.003162 µM): 0.592 | relative viability ([1]; first compound 0.01 µM): 0.721 | relative viability ([1]; first compound 0.03162 µM): 0.366 | relative viability ([1]; first compound 0.1 µM): 0.651 | relative viability ([2]; first compound 0.001 µM): 0.723 | relative viability ([2]; first compound 0.003162 µM): 0.915 | relative viability ([2]; first compound 0.01 µM): 1.06 | relative viability ([2]; first compound 0.03162 µM): 0.551 | relative viability ([2]; first compound 0.1 µM): 0.821 | relative viability ([3]; first compound 0.001 µM): 0.732 | relative viability ([3]; first compound 0.003162 µM): 0.809 | relative viability ([3]; first compound 0.01 µM): 0.85 | relative viability ([3]; first compound 0.03162 µM): 0.829 | relative viability ([3]; first compound 0.1 µM): 0.575 | relative viability ([4]; first compound 0.003162 µM): 1.67 | relative viability ([4]; first compound 0.01 µM): 1.92 | relative viability ([4]; first compound 0.03162 µM): 0.653 | relative viability ([4]; first compound 0.1 µM): 1.22 | relative viability ([5]; first compound 0.001 µM): 0.723 | relative viability ([5]; first compound 0.003162 µM): 0.867 | relative viability ([5]; first compound 0.01 µM): 0.868 | relative viability ([5]; first compound 0.03162 µM): 0.737 | relative viability ([5]; first compound 0.1 µM): 0.648 | relative viability ([6]; first compound 0.001 µM): 0.956 | relative viability ([6]; first compound 0.003162 µM): 1.16 | relative viability ([6]; first compound 0.03162 µM): 0.958 | relative viability ([6]; first compound 0.1 µM): 0.872 | relative viability ([7]; first compound 0.001 µM): 0.518 | relative viability ([7]; first compound 0.003162 µM): 0.88 | relative viability ([7]; first compound 0.01 µM): 0.936 | relative viability ([7]; first compound 0.03162 µM): 0.312 | relative viability ([7]; first compound 0.1 µM): 0.41 | relative viability ([8]; first compound 0.001 µM): 0.573 | relative viability ([8]; first compound 0.01 µM): 0.719 | relative viability ([8]; first compound 0.03162 µM): 0.456 | relative viability ([8]; first compound 0.1 µM): 0.395 | relative viability ([9]; first compound 0.001 µM): 1.07 | relative viability ([9]; first compound 0.01 µM): 1.13 | relative viability ([9]; first compound 0.03162 µM): 1.06 | relative viability ([9]; first compound 0.1 µM): 0.808 | relative viability ([10]; first compound 0.001 µM): 1.03 | relative viability ([10]; first compound 0.003162 µM): 1.09 | relative viability ([10]; first compound 0.03162 µM): 1 | relative viability ([10]; first compound 0.1 µM): 0.956 | relative viability ([11]; first compound 0.001 µM): 0.457 | relative viability ([11]; first compound 0.003162 µM): 0.541 | relative viability ([11]; first compound 0.01 µM): 0.481 | relative viability ([11]; first compound 0.03162 µM): 0.299 | relative viability ([11]; first compound 0.1 µM): 0.478 | relative viability ([12]; first compound 0.001 µM): 0.692 | relative viability ([12]; first compound 0.003162 µM): 0.638 | relative viability ([12]; first compound 0.01 µM): 0.682 | relative viability ([12]; first compound 0.03162 µM): 0.551 | relative viability ([12]; first compound 0.1 µM): 0.507 | relative viability ([13]; first compound 0.001 µM): 0.793 | relative viability ([13]; first compound 0.01 µM): 0.986 | relative viability ([13]; first compound 0.03162 µM): 0.719 | relative viability ([13]; first compound 0.1 µM): 1.03 | relative viability ([14]; first compound 0.001 µM): 0.877 | relative viability ([14]; first compound 0.003162 µM): 1.14 | relative viability ([14]; first compound 0.01 µM): 0.956 | relative viability ([14]; first compound 0.03162 µM): 0.831 | relative viability ([14]; first compound 0.1 µM): 0.856 | relative viability ([15]; first compound 0.001 µM): 0.967 | relative viability ([15]; first compound 0.003162 µM): 1.05 | relative viability ([15]; first compound 0.01 µM): 1.07 | relative viability ([15]; first compound 0.03162 µM): 0.87 | relative viability ([15]; first compound 0.1 µM): 0.92 | relative viability ([16]; first compound 0.001 µM): 1.06 | relative viability ([16]; first compound 0.003162 µM): 1.31 | relative viability ([16]; first compound 0.01 µM): 1.26 | relative viability ([16]; first compound 0.1 µM): 1.09 | relative viability ([17]; first compound 0.001 µM): 0.788 | relative viability ([17]; first compound 0.003162 µM): 0.831 | relative viability ([17]; first compound 0.01 µM): 0.838 | relative viability ([17]; first compound 0.03162 µM): 0.727 | relative viability ([17]; first compound 0.1 µM): 0.777 | relative viability ([18]; first compound 0.001 µM): 0.741 | relative viability ([18]; first compound 0.003162 µM): 0.7 | relative viability ([18]; first compound 0.01 µM): 0.802 | relative viability ([18]; first compound 0.03162 µM): 0.707 | relative viability ([18]; first compound 0.1 µM): 0.676 | relative viability ([19]; first compound 0.001 µM): 0.867 | relative viability ([19]; first compound 0.003162 µM): 0.876 | relative viability ([19]; first compound 0.01 µM): 1.02 | relative viability ([19]; first compound 0.03162 µM): 0.837 | relative viability ([19]; first compound 0.1 µM): 0.767 | relative viability ([20]; first compound 0.001 µM): 0.915 | relative viability ([20]; first compound 0.003162 µM): 1.15 | relative viability ([20]; first compound 0.01 µM): 1.41 | relative viability ([20]; first compound 0.03162 µM): 0.837 | relative viability ([20]; first compound 0.1 µM): 0.978

Source: the supplement of paper PMC10307832
